# “And” between values parts separate entries of the source, which are not always exact repeats. Equal values may be shown once. “Also recorded” adds a separate entry of the source.
# Assays:
# [1] = tested on: micronucleated cells in blood; assay: Cyclophosphamide dose response, flow cytometric micronucleus assay; assay type: in vivo, mouse
# Method: However, an effective flow cytometry based micronulceus assay should also be able to reflect changes in the number of MN-cells at different doses of a clastogen. Accordingly, another example of this embodiment involves a cyclophosphamide dose response analysis. Ten mice were divided into sets of two for this experiment. An initial blood sample was taken (t=0hr) for each mouse. The two control mice were dosed with saline while the other sets received different doses of cyclophosphamide (50,100,150 or 200 μg/g body weight). Each set was treated twice, at t=0 and t=48 hrs. Final blood samples were obtained at t=96hrs, and were fixed and stained with Hoechst 33258 to which PC microspheres had been added. The position of the microsphere peak was initially calibrated using the malaria infected RBCs as the primary standard. Each sample was then checked to insure that the microsphere peak was still at the calibrated position before acquisition. Some slight adjustments were necessary in the gains during the course of the analysis, during which ten t=0 samples and ten t=96 samples were run. One million total cells were counted for each sample. Gates were set on forward scatter (e.g. FIG. 3), side scatter (before the major cell peak), and a red gate (e.g. as shown in FIG. 13). These gates insured that only red blood cells and their associated micronuclei would be acquired. Following acquisition, the number of micronucleated cells at t=0 were subtracted from the number at t=96hr for each mouse. The average for the saline controls were slightly negative, and were recorded as zero in this graph. […] In addition, the high doses were approaching 1500 events more than the zero (control) values. […] For comparison, the 96hr samples were also hand counted and the number of MNs/1000 PCEs were determined.
# [2] = tested on: micronucleated cells in blood; conditions: literature statement; cited from earlier work
# [3] = tested on: micronucleated cells in blood; assay: Effects of bleeding on the sensitivity of the micronucleus assay, MMS; assay type: in vivo, mouse; conditions: for MNs in 96 hr blood, MMS(D): MMS 100 μg/g body wt at 0 and 48 hrs; for Increase in MNs (D - C): MMS minus saline means
# Text: Earlier, it was pointed out that obtaining an initial blood sample (t=0) provides an important background measurement of the number of micronucleii in each mouse. Obtaining an initial blood sample also increases the sensitivity of the assay, due to the stimulation of the stem cells to replenish the lost blood. Clastogen action should be increased if cells are actively turning over, rather than subsisting in a quiscent state. In the absence of bleeding, new PCEs are introduced into the blood cells at a low steady state level and MNs are introduced at a spontaneous background level. […] Practioners in the art are unaware of this increase in sensitivity due to initial bleeding. […] In this experiment, control mice were dosed with 0.9% saline, whereas treated mice received MMS (100 μg/g body wt.) at 0 hr and at 48 hrs. The first set of mice (the L series) were not bleed prior to obtaining a 96 hour blood sample. The MN-cell level resulting from MMS treatment would reflect the probability of clastogen action in the steady state stem cell turnover rate. The second set of mice (the M series) were bleed 166 hrs prior to the initial clastogen dose. In this set, the minus 166 hr bleeding will cause stem cell proliferation and differentiation, but the system should begin to return to steady state once the blood is replenished. The third set (the K series) was bleed at t=0hr where upon dosing was initiated, and a final blood sample was obtained at t=96 hrs.
# Since the L series was not initially bleed, the initial blood samples were not used in the analysis of the M or K series for equal comparison with L. Rather, only the 96 hour blood samples were analyzed in each set. The difference, D, between the saline controls and the dosed mice should reflect the level of turnover of the stem cells and the suseptibility of said cells to clastogen action in each case. […] Although the M series had 166 hrs to recover from the initial bleeding before being dosed with MMS, the stem cells still appear to be fairly active, and an intermediate level of micronucleated cells was obtained (i.e. 513 events above background). Finally, the highest activity was obtained with the K-series wherein the mice were bleed and immediately dosed. In this case, the stem cells are turning over at a high rate to replenish the blood at a time when the concentration of MMS is also high. […] The results in Tables 2 and 4 provide additional experimental evidence that bleeding stimulates stem cell proliferation and differentiation. […] This increase in sensitivity could be particularly important in cases where a week clastogen is being investigated.
# [4] = K Series: initial bleeding at t = 0
# [5] = M Series: initial bleeding at -166 hr
Structure (SMILES),"dose response ([1]; cyclophosphamide 50, 100, 150 or 200 μg/g body weight at t=0 and t=48 hrs)","clastogenic action at the lower doses ([1]; cyclophosphamide, lower doses, FIG. 14)","increase in MN events over zero (control) values ([1]; high doses of cyclophosphamide (50-200 μg/g body weight tested) at t=0 and t=48 hrs, one million total cells)",clastogenic activity (documented) [2],"MNs in 96 hr blood, MMS(D) [3, 4]","Increase in MNs (D - C) [3, 4]","MNs in 96 hr blood, MMS(D) ([3]; L Series: no initial bleeding)",Increase in MNs (D - C) ([3]; L Series: no initial bleeding),"MNs in 96 hr blood, MMS(D) [3, 5]","Increase in MNs (D - C) [3, 5]"
O=P1(N(CCCl)CCCl)NCCCO1 (stereo not shown) [cyclophosphamide],dose response relationship is evident; also recorded: good dose response relationship is obtained,data at the lower doses clearly supports the conclusion that clastogenic action was present,~1500 events,clastogenic activity of cyclophosphamide has been documented,,,,,,
"COS(C)(=O)=O [MMS, methyl methanesulfonate]",,,,,1829 and 1794 and 1812,777,1352 and 1390 and 1331 and 1357 ± 30,314,1776 and 1541 and 1673 and 1663 ± 118,513
